In US20250213526A1, “TRIPLE UPTAKE INHIBITOR FOR THE TREATMENT OF ATYPICAL DEPRESSION” (priority 2022, published 2025):
Entries after “also recorded” stand apart in the source; their conditions may differ.

Experiments:
Assay type in all cases: in vivo, rat
[1] = system: adult male Sprague Dawley rats; experiment: Fixed ratio 1 (FR1) schedule probe
Source text: A fixed ratio 1 (FR1) schedule was used, and this task is the most food dense and appetite dependent operant schedule, with high sensitivity to appetite-related manipulations such as pre-feeding and appetite suppressant drugs.
Methods. The same adult male Sprague Dawley rats (n=31) as in Example 5 were used in this study. Animals trained once daily on the PROG/Chow feeding choice procedure from Monday through Thursday. On Friday, the testing day, the animals were switched from the PROG/Chow feeding choice procedure to FR1 with no prior training. Each operant session lasted 30 minutes and lever presses were recorded at the end of the run. Drug treatment and the FR1 probe occurred on the Friday after two weeks of washout period from Example 5. A dose of 20.0 mg/kg of Compound 1 or vehicle was administered via oral gavage on the testing day. Only the highest dose was tested in this study because, in Example 5, it produced the most robust decrease in lever pressing and chow intake compared to VEH. Treatment conditions were assigned randomly. Treatment group difference was assessed by unpaired t-test. A p value of <0.05 was considered statistically significant.

[2] = system: male Sprague-Dawley rats; experiment: Binge-like eating of chocolate; details: for chocolate intake vs VEH: 4 h pre-treatment, 1-hr session
Source text: Methods. A new group of male Sprague-Dawley rats (n=8; initial weight 300-325 g) was used for the binge-like eating experiment. They were pair-housed under the same conditions described above, however, they were not food restricted, and in the home cage were allowed ad libitum access to food (laboratory chow) and water. Acquisition of the binge-like eating took place over the course of 12 exposure sessions. A 3-day, 1-hr habituation exposure to an empty feeding cage with a ceramic dish took place before chocolate exposure. With chocolate exposure, rats received chocolate (0.3 g fat, 0.57 g carbohydrate, and 0.073 g protein with a total of 5.34 kcal/g) on days 1, 2, 4, 6, 7, 9, 12, 14, 15, 18, 23, and 28. On exposure days, rats were placed in an empty feeding cage with a ceramic dish containing ground chocolate for 1 hr. Weight of chocolate was taken before and after each session to determine intake.
Drug Administration. Upon completion of the 12 acquisition sessions of binge-like eating rats continued to be exposed to chocolate sessions twice a week for 1-hr in empty feeding cages with a ceramic dish containing chocolate. One session was for maintenance of the binge-like behavior, and then the second was for drug treatment. These sessions took place randomly throughout the week with the maintenance session always occurring prior to the drug treatment session. Compound 1 was dissolved in 0.3% Tween 80 in dH2O. Vehicle (VEH), or doses of 5.0, 10.0, and 20.0 mg/kg were administered via oral gavage once a week for testing. A pre-treatment lead time of four hours was used. A within-subjects design was used in this study, with each rat receiving one treatment per week for a total of four weeks. Treatment conditions were selected randomly.
Data Analysis. Repeated measures ANOVA and planned comparisons were used to assess the effect of Compound 1 on binge-like eating of chocolate.

[3] = system: Male Long Evans Rats; experiment: 5-choice serial reaction time task (5-CSRTT)
Source text: The 5-choice serial reaction time task (5-CSRTT) is widely used to measure attentional performance and response control (motor impulsivity) in rodents. A strength of the test is its adaptability to task modification. Variations to stimulus duration and frequency of stimulus presentation, amongst others, have become commonly used to challenge performance in the context of attention and response control. The primary objective of these studies was to examine the effect of Compound 1 on attentional performance and on aspects of response control, defined as premature responses (PREM) and perseverative responses (PSV), measures of impulsive action, and compulsive action respectively. Two experimental manipulations were undertaken to differentially challenge performance. Specifically, (1) test Compound 1 (1, 3, 10 mg/kg) under standard test conditions of 0.75 s SD, 5 s ITI, 100 trials, and (2) test Compound 1 (1, 3 mg/kg) against a long ITI challenge. The long ITI challenge is designed to elevate PREM and PSV responses and so provide a means to examine the effect of both test articles on measures of impulsive and compulsive action.
• Dosage form: 0.3% Tween80 in 0.9% Saline • Pretreatment time: 180 minutes
• Dosage form: Compound 1 was suspended in 0.3% Tween80 in 0.9% Saline and sonicated. Drug was administered at a volume of 5 mL/kg, oral (PO) route. • Pretreatment time: 180 minutes • Doses tested: Phase 1: 1, 3, 10 mg/kg; Phase 2: 1, 3 mg/kg
Housing and Management of Test System: Following a one-week period of familiarization to the test facility, animals were placed on a restricted diet regimen, in which they were fed approximately 20 g of standard laboratory chow once per day (corresponding to ˜80% of normal food consumption) following the completion of study procedures (between 16:00 h and 18:00 h). Overall food intakes were therefore based on food earned during 5-choice training/testing and chow at the end of each study day. On days where no training/testing occurred, the daily allotted lab chow was increased to approximately 24 g per animal. Water was available ad-libitum except during 5-choice training/testing sessions. Animals were maintained on a 12 h/12 h light/dark cycle with all testing conducted during the animals' light cycle.
5-choice serial reaction time task: 5-choice operant chambers were housed in sound-insulated and ventilated enclosures. Chambers consisted of an aluminum enclosure (25×30 cm), containing a reward magazine attached to a food pellet dispenser and house light on one wall, and on the opposite wall an array of 5 square niches (2.5×2.5×2.5 cm) arranged on a curved panel and raised 2.5 cm from the grid floor. An LED was positioned at the rear of each niche. Each niche, and the reward magazine, also contained a photocell to detect head entry. Test chambers were controlled by Med PC software.
The 5-CSRTT schedule began with the illumination of the house light and delivery of a food pellet. A nose-poke into the magazine tray initiated the first trial which consisted of an inter-trial interval (ITI, 5 s) followed by the random illumination of one of the 5 lights for a fixed interval (stimulus duration, SD). If a nose-poke was registered in the illuminated niche before the end of either the SD, or a fixed interval after this period (limited hold, LH) a further pellet was dispensed and a Correct Trial registered. […] PSV responses were not punished by a TO.
Each session ran for either 100 trials or 60 min, depending on which session endpoint was achieved first. Animals were trained via a series of steps to final test conditions of 0.75 s SD, 5 s ITI, 5 s limited hold. Target performance was stable performance around a threshold of 80% correct ([correct/(correct+incorrect)]*100) and <20% omissions for at least a two week period. At this point drug testing began according to a repeated measures design with animals receiving treatment over repeated test sessions. […]

[4] = standard conditions 0.75 s SD, 5 s ITI, 100 trials, 1, 3, 10 mg/kg PO, P<0.01
[5] = standard conditions, 1, 3, 10 mg/kg PO

SMILES: CCC[C@]1(C(=O)c2ccc(Cl)c(Cl)c2)CCNC1 [Compound 1, (3,4-dichloro-phenyl)-((S)-3-propyl-pyrrolidin-3-yl)-methanone]
- rats that pressed the lever but refrained from eating some of the pellets ([1]; 20.0 mg/kg oral gavage): 6 of the 16
- lever pressing vs VEH in FR1 probe ([1]; 20.0 mg/kg oral gavage, 30-minute session, unpaired t-test t=9.74, p<0.001): significant decrease in lever pressing
- uneaten pellets left in the food dishes of these animals ([1]; 20.0 mg/kg, after the 30-minute operant session): 5-10 pellets
- chocolate intake vs VEH ([2]; 5.0 mg/kg oral gavage, n=8, n.s.): did not significantly suppress chocolate intake
- chocolate intake vs VEH ([2]; 10.0 mg/kg oral gavage, n=8, p<0.001): significant reductions in chocolate intake
- chocolate intake vs VEH ([2]; 20.0 mg/kg oral gavage, n=8, p<0.001): significant reductions in chocolate intake
- binge eating in animal model (FIGS. 8 and 9) ([2]; rat, in vivo): effective in controlling binge eating
- PREM responses in low/high impulsive subgroups ([3]; 10 s ITI schedule, 1 and 3 mg/kg PO, LI and HI subgroups, P<0.01): main effects of treatment and subgroup x treatment interactions
- PSV responses in low/high impulsive subgroups ([3]; 10 s ITI schedule, 1 and 3 mg/kg PO, LI and HI subgroups, treatment P=0.02, interaction P<0.01): main effects of treatment and subgroup x treatment interactions
- any task measure (accuracy % correct, % hit, PREM/PSV responses) ([3]; 10 s ITI, 0.3 s SD schedule, 1 and 3 mg/kg PO, all N=21 rats, F2,40≤2.5, NS): no main effects of treatment on any measure
- impulsive behaviors in rats ([3]; FIGS. 10A and 10B): reduces impulsive behaviors
- perseverative (PSV) responses relative to vehicle [3, 4]: dose-related decrease; also recorded: dose-dependently reduced
- premature (PREM) responses relative to vehicle [3, 4]: dose-related decrease; also recorded: dose-dependently reduced
- trial number ([3]; standard conditions, 10 mg/kg PO): decreased
- accuracy [3, 5]: no main effects of treatment; also recorded: no adverse effects
- speed of responding [3, 5]: no adverse effects
